One assay deals with ACAT. Put plainly: inhibition of ACAT. The assay is classed as biochemical.
Another assay concerns the target T1, CETP (Homo sapiens, UniProt P11597).
T1 sequence (P11597 18-493): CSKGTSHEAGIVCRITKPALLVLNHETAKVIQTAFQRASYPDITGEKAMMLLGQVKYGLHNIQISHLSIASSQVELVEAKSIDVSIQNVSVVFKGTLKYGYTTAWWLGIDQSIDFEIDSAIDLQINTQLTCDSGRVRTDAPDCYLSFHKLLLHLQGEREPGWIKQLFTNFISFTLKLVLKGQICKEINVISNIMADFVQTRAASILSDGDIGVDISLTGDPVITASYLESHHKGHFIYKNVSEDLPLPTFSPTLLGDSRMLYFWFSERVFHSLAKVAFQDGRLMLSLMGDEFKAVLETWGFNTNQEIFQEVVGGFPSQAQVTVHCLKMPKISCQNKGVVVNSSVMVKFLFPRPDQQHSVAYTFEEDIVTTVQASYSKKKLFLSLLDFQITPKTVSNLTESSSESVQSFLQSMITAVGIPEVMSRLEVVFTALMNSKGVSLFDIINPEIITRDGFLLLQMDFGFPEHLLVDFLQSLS
Put plainly: inhibition of CETP. The assay is classed as biochemical. The source says: (§1) The reported procedures for the inhibitory activities of ACAT (Tomoda, H.; Nishida, H.; Masuma, R.; Cao, J.; Okuda, S.; Omura, S. J. Antibiot. 1991, 44, 136-143), CETP (Tomoda, H.; Tabata, N.; Masuma, R.; Si, S.-Y.; Omura, S. J. Antibiot. 1998, 51, 618-623; D. H. Hua et al. Tetrahedron 2003, 59, 4795-4803), L1210 tumor cells (Perchellet, E. M.; Ladesich, J. B.; Magill, M. J.; Chen, Y.; Hua, D. H.; Perchellet, J. P. Anti-Cancer Drugs 1999, 10, 489-504), and APP C99-induced cell death (Jin, L.-W.; Hua, D. H.; Shie, F.-S.; Maezawa, I.; Sopher, B.; Martin, G. M. J. Mol. Neurosci. 2002, 19, 57-61) were followed.
(§2) ACAT mediates the esterification of intracellular cholesterol and is believed to play a key role in lipoprotein metabolism and atherogenesis (for a review: Suckling, K. E.; Stange, E. F. J. Lipid Res. 1985, 26, 647-671). […] The inhibition of CETP with these three compounds was then studied. CETP, a hydrophobic neutral glycoprotein, mediates the transfer of cholesteryl ester from high-density lipoprotein to low-density lipoprotein (For a review: Tall, A. R. J. Lipid Res. 1993, 34, 1255-1274). […] The N-(p-nitrophenyl)aspartamide portion of 104 was attached in order to study whether 104 was a substrate of […] (For a review: VIIIa, P.; Kaufmann, S. H.; Earnshaw, W. C. Trends Biochem. Sci. 1997, 22, 388-393). […] Compound 105 is cytotoxic to L1210 tumor cells, with IC50=30 μM. Aggarwal et al., J. Chem. Soc., Perkin Trans I (1999) 3315-3321 is incorporated by reference to the extent not inconsistent with the disclosure herewith.

A further assay has as its system MC65 cells. Put plainly: protection from APP C99-induced cell death in MC65 cells. The assay is classed as cell-based.
Description: as §1, with “followed. […]” for “followed.”

A further assay concerns caspase 103. Put plainly: in vitro caspase substrate study (release of p-nitroaniline). The assay is classed as biochemical.
Description: as §2

Turning to `C=C(C)[C@H]1CCC2=Cc3c(cc(CC(=O)N[C@@H](CC(=O)O)C(=O)Nc4ccc([N+](=O)[O-])cc4)oc3=O)O[C@H]2C1` [Compound 104], the figures for the IC50 with ACAT and against CETP were 168 µM and greater than 180 µM, respectively. The “protection of MC65 cells from death (in words)” value in the assay on MC65 cells (MC65 cells conditionally expressing partial APP fusion protein, absence of tetracycline) is “protected from death”. The EC50 with MC65 cells (MC65 cells in the absence of tetracycline) was 2 µM. For the same compound, the “substrate of caspase 103 (release of p-nitroaniline)” value in the assay on caspase 103 is given as “not a substrate”.

(Values after patent publication US7935726B1, “Tricyclic pyrones” (Kansas State University Research Foundation, priority 1999, dated 2011).)
